According to the supplement of paper PMC10307832:

How the values were obtained:
Assay in all cases: relative viability (nuclei count vs DMSO), 5 days (fraction); higher = more cells survive
[1] = compound: CC1=C(C(=NN1)C)CC2=C(C3=C(S2)N(C(=O)N(C3=O)C)CC(C)C)C(=O)N4C[C@@H](CO4)O + CC1(C)CCC(c2ccc(Cl)cc2)=C(CN2CCN(c3ccc(C(=O)NS(=O)(=O)c4ccc(N[C@H](CCN5CCOCC5)CSc5ccccc5)c(S(=O)(=O)C(F)(F)F)c4)cc3)CC2)C1 [Navitoclax] (partner 0.5 µM)
Method in brief: (§1)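 Relative viability divides the nuclei count in treated wells by that in vehicle wells. Lung cancer cell lines were seeded in 1536-well plates, dosed by pin tool the next day, and fixed and stained after 5 days in one step with final 0.05% Triton X-100, 1% formaldehyde and 1 ug/ml Hoechst. Dosing was a single drug or a fixed anchor-drug dose plus five library-drug doses (not always all listed) in √10 steps, and values are medians of duplicate plates imaged at 4×.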

[2] = compound: CC1=C(C(=NN1)C)CC2=C(C3=C(S2)N(C(=O)N(C3=O)C)CC(C)C)C(=O)N4C[C@@H](CO4)O + CS(=O)(=O)CCNCc1ccc(-c2ccc3ncnc(Nc4ccc(OCc5cccc(F)c5)c(Cl)c4)c3c2)o1 [Lapatinib] (partner 2 µM)
Method in brief: as §1

[3] = compound: Cc1ccccc1C(C(=O)NC1CCCCC1)N(C(=O)Cn1ccnc1C)c1cccc(F)c1 [IDH-C35] + CCNC(=O)c1noc(-c2cc(C(C)C)c(O)cc2O)c1-c1ccc(CN2CCOCC2)cc1 [Luminespib] (partner 0.01 µM)
Method in brief: as §1

[4] = compound: Cc1ccccc1C(C(=O)NC1CCCCC1)N(C(=O)Cn1ccnc1C)c1cccc(F)c1 [IDH-C35] + Cc1nc(Nc2ncc(C(=O)Nc3c(C)cccc3Cl)s2)cc(N2CCN(CCO)CC2)n1 [Dasatinib] (partner 0.075 µM)
Method in brief: as §1

Cell Line | relative viability ([1]; first compound 0.0025 µM) | relative viability ([1]; first compound 0.007906 µM) | relative viability ([1]; first compound 0.025 µM) | relative viability ([1]; first compound 0.07906 µM) | relative viability ([1]; first compound 0.25 µM) | relative viability ([2]; first compound 0.0025 µM) | relative viability ([2]; first compound 0.007906 µM) | relative viability ([2]; first compound 0.025 µM) | relative viability ([2]; first compound 0.07906 µM) | relative viability ([2]; first compound 0.25 µM) | relative viability ([3]; first compound 0.08 µM) | relative viability ([3]; first compound 0.253 µM) | relative viability ([3]; first compound 0.8 µM) | relative viability ([3]; first compound 2.53 µM) | relative viability ([3]; first compound 8 µM) | relative viability ([4]; first compound 0.08 µM) | relative viability ([4]; first compound 0.253 µM) | relative viability ([4]; first compound 0.8 µM) | relative viability ([4]; first compound 2.53 µM) | relative viability ([4]; first compound 8 µM)
COR-L23 | 0.783 | 0.984 | 0.777 | 0.781 | 0.845 | 0.883 | 0.846 | 0.656 | 0.826 | 0.923 | 0.789 | 0.656 | 0.664 | 0.641 | 0.679 | 0.479 | 0.438 | 0.48 | 0.443 | 0.445
NCI-H2087 | 1.05 | 0.979 | 0.953 | 1.1 | 1.16 | 1.11 | 1.15 | 1.09 | 0.939 | 1.23 | 0.105 | 0.141 | 0.164 | – | 0.128 | 0.944 | 0.995 | 0.9 | – | 0.814
LC-2-ad | 0.459 | 0.461 | 0.463 | 0.481 | 0.58 | 1.01 | 0.893 | 0.993 | 0.912 | 1.14 | 1.05 | 1.04 | 0.962 | – | 0.939 | 0.596 | 0.65 | 0.568 | – | 0.593
NCI-H1915 | 0.81 | 0.789 | 0.763 | 0.79 | 0.832 | 0.98 | 1.02 | 0.953 | 0.967 | 1.06 | 0.787 | 0.715 | 0.755 | 0.815 | 0.747 | 0.328 | 0.308 | 0.304 | 0.326 | 0.309
NCI-H1793 | 0.617 | 0.415 | 0.411 | 0.435 | 0.501 | 0.514 | 0.649 | 0.549 | 0.431 | 0.426 | 0.159 | 0.215 | 0.255 | – | 0.184 | 0.409 | 0.423 | 0.364 | – | 0.414
NCI-H2023 | 0.981 | 0.946 | 0.957 | 0.979 | 0.986 | 1.1 | 0.965 | 0.903 | 1.03 | 0.861 | 0.617 | 0.769 | 0.854 | 0.722 | 0.506 | 0.59 | 0.549 | 0.673 | 0.517 | 0.559
COR-L 105 | 0.969 | 0.768 | 0.682 | 0.561 | 0.657 | 0.36 | 0.422 | 0.381 | 0.302 | 0.369 | 0.722 | 0.951 | 0.715 | 0.819 | 0.742 | 0.394 | 0.394 | 0.403 | 0.323 | 0.349
RERF-LC-KJ | 1.18 | 0.99 | 1.01 | 0.713 | 0.897 | 0.899 | 0.928 | 0.86 | 0.885 | 0.941 | 1.21 | 1.34 | 1.22 | 1.17 | 1.19 | 0.894 | 0.76 | 0.898 | 0.964 | 0.761
